This is an account of results in US7968577B2 (Bristol-Myers Squibb Company, priority 2006, dated 2011).

In general, Ki refers to the equilibrium dissociation constant of an inhibitor or competing ligand from its target. High values mean lower affinity, low ones higher affinity.

The target in this test is T1, human full-length glucocorticoid receptor (Homo sapiens, UniProt P04150).
T1 construct: recombinantly expressed human full-length glucocorticoid receptor; purchased PanVera Co., Madison, Wis; P2816
T1 sequence (P04150 1-777): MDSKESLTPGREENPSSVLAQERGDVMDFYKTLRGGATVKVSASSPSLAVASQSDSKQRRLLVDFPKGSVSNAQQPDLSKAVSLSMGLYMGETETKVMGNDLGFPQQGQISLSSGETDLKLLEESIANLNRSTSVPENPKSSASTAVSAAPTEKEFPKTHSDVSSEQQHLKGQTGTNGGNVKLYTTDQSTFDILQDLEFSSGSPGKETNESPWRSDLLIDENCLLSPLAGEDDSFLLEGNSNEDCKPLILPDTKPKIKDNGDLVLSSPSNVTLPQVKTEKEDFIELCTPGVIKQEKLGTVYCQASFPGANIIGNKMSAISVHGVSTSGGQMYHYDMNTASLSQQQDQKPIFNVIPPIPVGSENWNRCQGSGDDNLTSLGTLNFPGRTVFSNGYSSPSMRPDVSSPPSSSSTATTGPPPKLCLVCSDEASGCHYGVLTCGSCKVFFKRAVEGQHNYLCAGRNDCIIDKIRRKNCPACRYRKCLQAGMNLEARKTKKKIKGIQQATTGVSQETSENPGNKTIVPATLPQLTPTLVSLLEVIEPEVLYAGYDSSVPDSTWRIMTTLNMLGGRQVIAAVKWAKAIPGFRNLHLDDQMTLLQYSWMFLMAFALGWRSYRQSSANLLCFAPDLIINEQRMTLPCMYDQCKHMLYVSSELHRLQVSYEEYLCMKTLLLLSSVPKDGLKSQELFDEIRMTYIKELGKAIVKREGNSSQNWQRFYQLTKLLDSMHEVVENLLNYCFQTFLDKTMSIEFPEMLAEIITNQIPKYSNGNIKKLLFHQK
In words: Glucocorticoid Receptor Binding Assay (II), fluorescence polarization competitor kit (Fluormone GS1). The settings on record: GR Binding Assay (II). The protocol:
Glucocorticoid Receptor Binding Assay (II)^b
In order to measure the binding of compounds on the glucocorticoid receptor a commercially available kit was used (Glucocorticoid receptor competitor assay kit, PanVera Co., Madison, Wis., P2816). Briefly, a cell lysate containing recombinantly expressed human full-length glucocorticoid receptor was mixed with a fluorescently labeled glucocorticoid (1 nM Fluormone GS1) in the presence or absence of test compound. After one hour at room temperature, the fluorescence polarization (FP) of the samples were measured.
(In general: Polarisation of emitted light reports the rotation of a fluorescent probe.)

`COc1ccc(C(c2ccccc2)C(C)(C)C(=O)Nc2nncs2)cc1F` (centres unmarked) [Example 284, 3-(3-fluoro-4-(methyloxy)phenyl)-2,2-dimethyl-3-phenyl-N-1,3,4-thiadiazol-2-ylpropanamide] had a Ki of 26.9 nM.

For `COc1ccc([C@@H](c2ccccc2)C(C)(C)C(=O)Nc2ncc(C)s2)cc1` [Example 268, (3R)-2,2-dimethyl-3-(4-(methyloxy)phenyl)-N-(5-mehtyl-1,3-thiazol-2-yl)-3-phenylpropanamide], the Ki turned out to be 302 nM. For the molecule `CC(O)c1ccc(C(c2ccccc2)C(C)(C)C(=O)Nc2nncs2)cc1` (centres unmarked) [Example 372], the Ki stood at 96.1 nM. On to `CCOC(=O)c1csc(NC(=O)C(C)(C)[C@@H](c2ccccc2)c2ccc(O)cc2)n1` [Example 338, ethyl 2-(((3S)-3-(4-hydroxyphenyl)-2,2-dimethyl-3-phenylpropanoyl)amino)-1,3-thiazole-4-carboxylate], for which the Ki worked out at 11.8 nM. The molecule `CC(C)(C(=O)Nc1nccs1)[C@@H](c1ccccc1)c1cccc(O)c1` [Example 327, 3-(3-hydroxyphenyl)-2,2-dimethyl-3-phenyl-N-1,3-thiazol-2-ylpropanamide] showed a Ki of 90.9 nM.

In turn, `COc1ccc([C@@H](c2ccccc2)C(C)(C)C(=O)Nc2nccs2)cc1Br` [Example 286, (3R)-3-(3-bromo-4-(methyloxy)phenyl)-2,2-dimethyl-3-phenyl-N-1,3-thiazol-2-ylpropanamide] had a Ki of 46.7 nM.

For `COc1ccc([C@@H](c2ccccc2)C(C)(C)C(=O)NC2CCCC2)cc1` [Example 274, (3R)-N-cyclopentyl-2,2-dimethyl-3-(4-(methyloxy)phenyl)-3-phenylpropanamide], the affinity corresponds to a Ki of 1530 nM. The result for `COc1ccc([C@H](c2ccccc2)C(C)(C)C(=O)NC2CCCC2)cc1` [Example 273, (3S)-N-cyclopentyl-2,2-dimethyl-3-(4-(methyloxy)phenyl)-3-phenylpropanamide] reads 987 nM. The value for `CC(C)(C(=O)Nc1nncs1)C(c1ccccc1)c1cccc(Br)c1` (centres unmarked) [Example 312, 3-(3-bromophenyl)-2,2-dimethyl-3-phenyl-N-1,3-thiadiazol-2-ylpropanamide] was 19.9 nM; that for `CC(C)(C(=O)Nc1nncs1)C(c1ccc(F)cc1)c1ccc(N2CCOCC2)cc1` (centres unmarked) [Example 231, 3-(4-fluorophenyl)-2,2-dimethyl-3-(4-(4-morpholinyl)phenyl)-N-1,3,4-thiadiazol-2-ylpropanamide] was 18.2 nM.

For `COc1ccc([C@H](c2ccccc2)C(C)(C)C(=O)Nc2ccccn2)cc1` [Example 277, (3S)-2,2-dimethyl-3-(4-(methyloxy)phenyl)-3-phenyl-N-2-pyridinylpropanamide], the affinity corresponds to a Ki of 2670 nM. `Cc1csc(NC(=O)C(C)(C)[C@H](c2ccccc2)c2ccc(O)cc2)n1` [Example 330, (3R)-3-(4-hydroxyphenyl)-2,2-dimethyl-N-(4-methyl-1,3-thiazol-2-yl)-3-phenylpropanamide] showed a Ki of 169 nM. The result for `CC(C)(C(=O)Nc1nccs1)[C@H](c1ccccc1)c1cccc(O)c1` [Example 328, 3-(3-hydroxyphenyl)-2,2-dimethyl-3-phenyl-N-1,3-thiazol-2-ylpropanamide] reads 17.8 nM; that for `CC(C)(C(=O)Nc1nncs1)C(c1ccccc1)c1ccc(Br)cc1` (centres unmarked) [Example 318, 3-(4-bromophenyl)-2,2-dimethyl-3-phenyl-N-1,3,4-thiadiazol-2-ylpropanamide], 12.8 nM.

On to `CC(C)(C(=O)Nc1ccccn1)[C@@H](c1ccccc1)c1ccc(O)cc1` [Example 341, (3S)-3-(4-hydroxyphenyl)-2,2-dimethyl-3-phenyl-N-2-pyridinylpropanamide], for which the Ki turned out to be 175 nM.

On to `CC(C)(C(=O)Nc1nccs1)[C@H](c1ccccc1)c1ccc(O)c(C#N)c1` [Example 358], for which the inhibitory constant (Ki) came to 22.9 nM.

`CC(C)(C(=O)Nc1nncs1)C(c1ccccc1)c1ccc(O)cc1F` (centres unmarked) [Example 344, 3-(2-fluoro-4-hydroxyphenyl)-2,2-dimethyl-3-phenyl-N-1,3,4-thiadiazol-2-ylpropanamide] came in with a Ki of 43.2 nM. The result for `COc1ccc([C@H](c2ccccc2)C(C)(C)C(=O)NC2CCC2)cc1` [Example 271, (3S)-N-cyclobutyl-2,2-dimethyl-3-(4-(methyloxy)phenyl)-3-phenylpropanamide] reads 770 nM; that for `CC(C)(C(=O)NC1CCCC1)[C@H](c1ccccc1)c1ccc(O)cc1` [Example 336, (3R)-N-cyclopentyl-3-(4-hydroxyphenyl)-2,2-dimethyl-3-phenylpropanamide], 504 nM.

The molecule `CC(C)(C(=O)Nc1nccs1)C(c1ccccc1)c1cccc(C#N)c1` (centres unmarked) [Example 313, 3-(3-cyanophenyl)-2,2-dimethyl-3-phenyl-N-1,3-thiazol-2-ylpropanamide] had a Ki of 57.6 nM. Consider `CC(C)(C(=O)Nc1nncs1)C(c1ccccc1)c1ccc(N2CCNCC2)cc1` (centres unmarked) [Example 251, 2,2-dimethyl-3-phenyl-3-(4-(1-piperazinyl)phenyl)-N-1,3,4-thiadiazol-2-ylpropanamide], for which the Ki is 636 nM. The value for `COc1ccc([C@H](c2ccccc2)C(C)(C)C(=O)Nc2ncc(C)s2)cc1` [Example 267, (3S)-2,2-dimethyl-3-(4-(methyloxy)phenyl)-N-(5-methyl-1,3-thiazol-2-yl)-3-phenylpropanamide] was 111 nM; that for `COc1ccc(C(c2ccccc2)C(C)(C)C(=O)Nc2nncs2)cc1F` (centres unmarked) [Example 285, 3-(3-fluoro-4-(methyloxy)phenyl)-2,2-dimethyl-3-phenyl-N-1,3,4-thiadiazol-2-ylpropanamide] was 13.8 nM; that for `Cc1cnc(NC(=O)C(C)(C)[C@H](c2ccccc2)c2ccc(O)cc2)s1` [Example 332, (3R)-3-(4-hydroxyphenyl)-2,2-dimethyl-N-(5-methyl-1,3-thiazol-2-yl)-3-phenylpropanamide] was 204 nM. The result for `CC(C)(C(=O)Nc1nncs1)[C@@H](c1ccccc1)c1ccc(N2CCOCC2)cc1` (stereo in doubt) [Example 259, 2,2-dimethyl-3-(4-(4-morpholinyl)phenyl)-3-phenyl-N-1,3,4-thiadiazol-2-ylpropanamide] reads 190 nM. In turn, `COc1ccc(C(c2ccccc2)C(C)(C)C(=O)Nc2nccs2)cc1F` (centres unmarked) [Example 282, 3-(3-fluoro-4-(methyloxy)phenyl)-2,2-dimethyl-3-phenyl-N-1,3-thiazol-2-ylpropanamide] gave a Ki of 29.5 nM. `CC(C)(C(=O)Nc1nccs1)C(c1ccccc1)c1ccc(C#N)cc1` (centres unmarked) [Example 310, 3-(4-cyanophenyl)-2,2-dimethyl-3-phenyl-N-1,3-thiazol-2-ylpropanamide] displayed a Ki of 26.6 nM. The result for `CC(=O)Nc1ccc(C(c2ccccc2)C(C)(C)C(=O)Nc2nncs2)cc1` (centres unmarked) [Example 246, 3-(4-(acetylamino)phenyl)-2,2-dimethyl-3-phenyl-N-1,3,4-thiadiazol-2-ylpropanamide] reads 1500 nM. The value for `CC(C)(C(=O)Nc1nccs1)[C@H](c1ccccc1)c1ccc(OC(=O)C2CCCO2)cc1` (stereo partly drawn) [Example 367, 4-((1R)-2,2-dimethyl-3-oxo-1-phenyl-3-(1,3-thiazol-2-ylamino)propyl)phenyl tetrahydro-2-furancarboxylate] was 26.9 nM.

`CC(C)(C(=O)Nc1nccs1)C(c1ccccc1)c1ccc(-c2ccoc2)cc1` (centres unmarked) [Example 376, 3-(4-(3-furanyl)phenyl)-2,2-dimethyl-3-phenyl-N-1,3-thiazol-2-ylpropanamide] had a Ki of 15.8 nM. The value for `COc1ccc([C@H](c2ccccc2)C(C)(C)C(=O)Nc2nncs2)cc1` [Example 275] was 51.9 nM; that for `COc1ccc(C(c2ccccc2)C(C)(C)C(=O)Nc2nccs2)cc1F` (centres unmarked) [Example 281, 3-(3-fluoro-4-(methyloxy)phenyl)-2,2-dimethyl-3-phenyl-N-1,3-thiazol-2-ylpropanamide] was 15.5 nM; that for `CC(C)(C(=O)Nc1nccs1)[C@H](c1ccccc1)c1ccc(OC(=O)c2ccoc2)cc1` [Example 365, 4-((1R)-2,2-dimethyl-3-oxo-1-phenyl-3-(1,3-thiazol-2-ylamino)propyl)phenyl 3-furancarboxylate] was 31.9 nM. The value for `Cc1ccc(CNc2ccc(C(c3ccccc3)C(C)(C)C(=O)Nc3nncs3)cc2)cc1` (centres unmarked) [Example 240, 2,2-dimethyl-3-(4-(((4-methylphenyl)methyl)amino)phenyl)-3-phenyl-N-1,3,4-thiadiazol-2-ylpropanamide] was 18.6 nM.

Regarding `CC(C)(C(=O)NC1CCC1)[C@@H](c1ccccc1)c1ccc(O)cc1` [Example 333, (3S)-N-cyclobutyl-3-(4-hydroxyphenyl)-2,2-dimethyl-3-phenylpropanamide], the affinity corresponds to a Ki of 392 nM.
